Measured values published in the supplement of paper PMC10949913.

What was measured:
Conditions in all cases: 48 h
CU-ACC1 [1] = test: AC50 viability; higher = less potent
Method in brief: (§1)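 After 48 h of treatment with 23 nL of each library compound at 11 concentrations, three adrenocortical carcinoma cell lines in 1,536-well plates (500–1,000 cells/well, 5 µL medium) were given CellTiter-Glo for 15 minutes at room temperature. Luminescence was then read and normalised per plate to vehicle and empty-well controls. AC50 and area under the curve were drawn from fitted concentration-response curves of inhibitory or non-responding classes only.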

CU-ACC1 [2] = test: area under concentration-response curve (viability) (AUC (a.u.)); higher = less active
Method in brief: as §1

CU-ACC2 = test: as above
Method in brief: as §1

NCI-H295R = test: as above
Method in brief: as §1

Compound | AC50 viability (CU-ACC1 [1]) [µM] | area under concentration-response curve (CU-ACC1 [2]) | area under concentration-response curve (CU-ACC2) | area under concentration-response curve (NCI-H295R)
CN(C)Cc1ccc(-c2nc3cccc4c3n2CCNC4=O)cc1 | 33.2 | 294 | 216 | 
Cn1cnc2c(F)c(Nc3ccc(Br)cc3F)c(C(=O)NOCCO)cc21 | 0.0332 | 242 | 145 | 159
CC1Oc2cc(cnc2N)-c2c(nn(C)c2C#N)CN(C)C(=O)c2ccc(F)cc21 (stereo not given) | 6.61 | 463 | 485 | 
Clc1ccc(C(Cn2ccnc2)OCc2ccsc2Cl)c(Cl)c1 (stereo not given) | 16.6 | 476 | 584 | 
CN(CC#C)C/C1=C/C2=CC=CC=C2OC3=CC=CC=C13 | 33.2 | 419 | 524 | 546
Cc1cccc(CC(=O)N2CCc3c2ccc(-c2cn(C)c4ncnc(N)c24)c3F)n1 | 4.68 | 487 | 644 | 551
CC(C)CC(=O)Nc1n[nH]c2c1CN(C(=O)C1CCN(C)CC1)C2(C)C | 16.6 | 514 | 574 | 562
Cn1c(=O)c2c(ncn2CC2OCCO2)n(C)c1=O | 0.00235 | 294 | 375 | 452
O=C(O)c1nn(Cc2ccc(Cl)cc2Cl)c2ccccc12 | 1.66 | 442 | 464 | 440
COC(=O)N1CCN(Cc2cccc(NC(=O)Nc3ccc(C)nc3)c2F)CC1 | 74.2 | 486 | 601 | 573
N[S+](=O)([O-])c1ccc(NC(=S)N2CCN(C/C=C/c3ccccc3)CC2)cc1 | 20.9 | 494 | 583 | 523
CCc1c(C(=O)NNC(=O)[C@@H](O)c2cc(F)cc(F)c2)ccc(O)c1C | 26.3 | 387 | 492 | 441
FC1=C(C=C(C/C2=N/NC(=O)C3=C2C=CC=C3)C=C1)C(=O)N4CCN(CC4)C(=O)C5CC5 | 10.5 | 456 | 464 | 434
COC[C@H]1OC(=O)C2=COC3=C2[C@@]1(C)\C4=C(C5CCC(=O)[C@@]5(C)C[C@H]4OC(C)=O)/C3=O (stereo not given in full) | 16.6 | 446 | 549 | 
S=C(NCc1ccc2c(c1)OCO2)N1CCN(c2ncnc3c2oc2ccccc23)CC1 | 2.95 | 383 | 567 | 483
O=C(Nc1cccc(Br)c1)c1cccc([S+](=O)([O-])N2CCCCCC2)c1 | 29.5 | 486 | 608 | 
COc1nnc2ccc(N3CCC(c4ccc(OCCN5CCN(C)C(=O)[C@H]5C)cc4)CC3)nn12 | 0.263 | 468 | 449 | 474
C=CC(=O)N1CCC(C2CCNc3c(C(N)=O)c(-c4ccc(Oc5ccccc5)cc4)nn32)CC1 (stereo not given) | 16.6 | 492 | 614 | 553
CC(=O)[C@]1(N)Cc2c(O)c3c(c(O)c2[C@@H](O[C@H]2C[C@H](O)[C@H](O)CO2)C1)C(=O)c1ccccc1C3=O | 16.6 | 474 | 487 | 534

Compound | AC50 viability (CU-ACC1 [1]) [µM] | area under concentration-response curve (CU-ACC1 [2]) | area under concentration-response curve (CU-ACC2) | area under concentration-response curve (NCI-H295R)
COc1ccc(Cc2nccc3cc(OC)c(OC)cc23)cc1OC | 6.61 | 384 | 583 | 533
CN(C)C(=O)c1ccc([S+](=O)([O-])c2ccc(NC(=O)[C@@](C)(O)C(F)(F)F)c(Cl)c2)cc1 | 5.25 | 346 | 640 | 
CN(C)C(=O)[C@H](O)[C@H](Cc1ccccc1)NC(=O)c1cc2cc(Cl)ccc2[nH]1 | 0.0118 | 364 | 420 | 444
N=C(N)Nc1ccc(C(=O)Oc2ccc3cc(C(=N)N)ccc3c2)cc1 | 33.2 | 460 | 585 | 532
CC(C)n1c(/C=C/[C@H](O)C[C@H](O)CC(=O)O)c(-c2ccc(F)cc2)c2ccccc21 | 10.5 | 506 | 617 | 567
OC1=CC2=C(C=C1)C(=O)\C(=C(O2)\C3=CC(=C(O)C=C3)O)O | 14.8 | 451 | 548 | 
O=C(NOCCO)c1ccc2cncn2c1Nc1ccc(I)cc1F | 14.8 | 461 | 598 | 549
COc1ccc2cc3[n+](cc2c1OC)CCc1cc2c(cc1-3)OCO2 | 4.68 | 444 | 573 | 557
CC(C)c1noc(N2CCC(COc3ccc(-c4ccc([S+](C)(=O)[O-])cc4)nc3)CC2)n1 | 8.33 | 419 | 583 | 496
Cc1nc2cnc3ccc(C#Cc4cccnc4)cc3c2n1-c1ccc(C(C)(C)C#N)cc1 | 0.661 | 402 | 557 | 492
Cc1ccc(N[S+](=O)([O-])c2cccc(C#N)c2)c2[nH]cc(C#N)c12 | 0.833 | 451 | 576 | 489
O=C(Nc1ccc(OC(F)(F)Cl)cc1)c1cnc(N2CC[C@@H](O)C2)c(-c2ccn[nH]2)c1 | 33.2 | 442 | 574 | 
CN[C@@H]1C[C@H]2O[C@@](C)([C@@H]1OC)n1c3ccccc3c3c4c(c5c6ccccc6n2c5c31)C(=O)NC4 | 0.833 | 385 | 359 | 346
CN[S+]([O-])(=O)NC1=NC=CC(=C1F)CC/2=C(C)/C3=CC=C(OC4=NC=CC=N4)C=C3OC2=O | 7.42 | 441 | 611 | 577
O=C(NO)C1(C[S+](=O)([O-])c2ccc(Oc3ccc(Cl)cc3)cc2)CCOCC1 | 16.6 | 450 | 553 | 
Cc1c(CN2CCC(Nc3ncnc4sc(CC(F)(F)F)cc34)CC2)ccc2c1cc(C#N)n2Cc1cn[nH]c1 | 3.32 | 411 | 540 | 453
CC(C)(C)NC(=O)Nc1cccc(Nc2ncc(F)c(NC(C)(C)CO)n2)c1 | 23.5 | 525 | 652 | 571
CO[C@H]1C[C@@H]2CC[C@@H](C)[C@@](O)(O2)C(=O)C(=O)N2CCCC[C@H]2C(=O)O[C@H]([C@H](C)C[C@@H]2CC[C@@H](OCCO)[C@H](OC)C2)CC(=O)[C@H](C)/C=C(/C)[C@@H](O)[C@@H](OC)C(=O)[C@H](C)C[C@H](C)\C=C/C=C\C=C/1C | 18.6 | 421 | 439 | 
Cc1ccc(-n2nc(C(C)(C)C)cc2NC(=O)Nc2ccc(OCCN3CCOCC3)c3ccccc23)cc1 | 29.5 | 374 | 499 | 

Compound | AC50 viability (CU-ACC1 [1]) [µM] | area under concentration-response curve (CU-ACC1 [2]) | area under concentration-response curve (CU-ACC2) | area under concentration-response curve (NCI-H295R)
CCOC(=O)c1c(CSc2ccccc2)n(C)c2cc(Br)c(O)c(CN(C)C)c12 | 37.2 | 476 | 600 | 
COC1=CC=CC2=C1C(=C(/C(=O)N(C)C3=CC=C(C=C3)C(F)(F)F)C(=O)N2C)/O | 0.0525 | 279 | 187 | 
Clc1ccccc1C(c1ccccc1)(c1ccccc1)n1ccnc1 | 18.6 | 509 | 518 | 
CCOC(=O)[C@@]1(CCCCCCOc2ccc(Cl)cc2)CO1 | 23.5 | 382 | 624 | 
Clc1ccc(Cn2c(CN3CCCC3)nc3ccccc32)cc1 | 29.5 | 447 | 576 | 
NC(=O)c1noc([C@H](CCCC2CCCCC2)CC(=O)NO)n1 | 41.7 | 446 | 531 | 
O=C(O)c1ccc(O)c2ncc(N3CCOCC3)cc12 | 23.5 | 442 | 525 | 
CN1CCc2c(n(Cc3ccc(C(=O)NO)cc3)c3ccccc23)C1 | 29.5 | 426 | 482 | 
O=C(NOCC(O)CO)c1cc(Br)c(F)c(F)c1Nc1ccc(I)cc1F (stereo not given) | 1.18 | 416 | 407 | 
CCC1CCCCN1C(=O)n1ncc(C(O)(c2ccccc2)c2ccccc2)n1 (stereo not given) | 18.6 | 435 | 571 | 
COC1CCC(C(=O)c2ccc3nc4c(cc3c2)CCCO4)CC1 (stereo not given) | 16.6 | 460 | 501 | 
CN1CCC(CC1)=C2C3=C(C=CC=C3)\C=C/C4=C2C=CC=C4 | 8.33 | 373 | 480 | 
N[S+](=O)([O-])c1ccc([S+](=O)([O-])Nc2cccc3c(Cl)c[nH]c23)cc1 | 8.33 | 404 | 527 | 
FC(F)(F)c1ccc(Nc2nc3cc(Oc4ccnc(-c5ncc(C(F)(F)F)[nH]5)c4)ccc3[nH]2)cc1 | 4.68 | 479 | 603 | 
C[C@@H]1CC2C3C[C@H](F)C\4=C\C(=O)\C=C/[C@]4(C)[C@@]3(F)[C@@H](O)C[C@]2(C)[C@@]1(OC(=O)C5=CC=CO5)C(=O)SCF (stereo not given in full) | 41.7 | 468 | 592 | 
[O-][n+]1cccc(-c2nc3c(Cl)cccc3cc2[C@@H](Nc2ncnc3cccnc23)C(F)(F)F)c1 | 26.3 | 332 | 368 | 
O=C(CCN1CCN(C(=O)OCc2cc(Cl)cc(Cl)c2)CC1)c1ccc2[nH]c(=O)oc2c1 | 23.5 | 468 | 495 | 
CC(C)c1c(C(=O)Nc2ccccc2)c(-c2ccccc2)c(-c2ccc(F)cc2)n1CC[C@@H](O)C[C@@H](O)CC(=O)O | 6.45 | 544 |  | 635
